Tests used:
[1] = molecular target: MCL-1/Bim interaction (recombinant human MCL-1 protein, residues 171-327; biotinylated human Bim peptide, residues 51-76) (Homo sapiens (Human), UniProt Q07820); experiment: MCL-1/Bim Binding AlphaLISA Assay; details: 0.0625 nM 6xHis-Mcl-1 (171-327), 0.0625 nM biotinylated-Bim peptide
In short: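 AlphaLISA with 0.0625 nM His-tagged MCL-1 (171-327) and 0.0625 nM biotinylated Bim (51-76) in 20 mM Hepes pH 7.5, 150 mM NaCl, 0.002% Brij 35, 1 mM DTT, 0.01% BSA. Compound preincubated 1 h with MCL-1, then Bim 2 h, acceptor beads 1 h, donor beads 1 h; percent inhibition against DMSO and no-protein/no-peptide controls.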

SKBR3 cells = experiment: SKBR3 Cell Viability Assay (CellTiter Glo); format: cell-based; details: Homo sapiens, SK-BR-3, 72 h, CellTiter Glo luminescence, read-out: MCL-1 CV SKBR3 EC50
In short: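 SKBR3 cells (6,000/well) in McCoy 5A + 10% FBS exposed to serially diluted compound for 72 h at 37° C., 5% CO2. Viability by CellTiter Glo luminescence; % inhibition normalized to DMSO (negative) and 10 μM puromycin (positive).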

Sequence of MCL-1/Bim interaction (recombinant human MCL-1 protein, residues 171-327; biotinylated human Bim peptide, residues 51-76) (Q07820 171-327): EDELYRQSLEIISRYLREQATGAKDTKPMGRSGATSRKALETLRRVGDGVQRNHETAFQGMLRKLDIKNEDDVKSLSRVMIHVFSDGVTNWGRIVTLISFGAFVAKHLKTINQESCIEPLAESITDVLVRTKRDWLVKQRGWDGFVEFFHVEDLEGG

SMILES	IC50 [1]	EC50 (SKBR3 cells)
CO[C@H]1/C=C/C[C@H](C)C[S@@](=O)(NC(=O)N[C@H]2C[C@@](C)(CO)C2)=NC(=O)c2ccc3c(c2)N(C[C@@H]2CC[C@H]21)C[C@@]1(CCCc2cc(Cl)ccc21)CO3 [Example 314]	0.054 nM	32.9 nM
COC(=O)[C@]1(C)C[C@H](NC(=O)N[S@@]2(=O)=NC(=O)c3ccc4c(c3)N(C[C@@H]3CC[C@H]3[C@@H](OC)/C=C/C[C@H](C)C2)C[C@@]2(CCCc3cc(Cl)ccc32)CO4)C1 [Example 305]	0.088 nM	140 nM
CO[C@H]1/C=C/C[C@H](C)C[S@@](=O)(NC(=O)N[C@@H]2C[C@@H]2F)=NC(=O)c2ccc3c(c2)N(C[C@@H]2CC[C@H]21)C[C@@]1(CCCc2cc(Cl)ccc21)CO3 [Example 116]	0.08 nM	141 nM
COC[C@@H]1Cn2cc(C(=O)N[S@@]3(=O)=NC(=O)c4ccc5c(c4)N(C[C@@H]4CC[C@H]4[C@@H](OC)/C=C/C[C@H](C)C3)C[C@@]3(CCCc4cc(Cl)ccc43)CO5)cc2CO1 [Example 306]	0.057 nM	43.6 nM
CO[C@H]1/C=C/CCC[S@@](=O)(NC(=O)N2CCS(=O)(=O)CC2)=NC(=O)c2ccc3c(c2)N(C[C@@H]2CC[C@H]21)C[C@@]1(CCCc2cc(Cl)ccc21)CO3 [Example 73]	0.3 nM	2450 nM
COc1nn(C)cc1C(=O)N[S@@]1(=O)=NC(=O)c2ccc3c(c2)N(C[C@@H]2CC[C@H]2[C@@H](OC)/C=C/[C@H](OC(F)F)[C@H](C)C1)C[C@@]1(CCCc2cc(Cl)ccc21)CO3 [Example 400]	0.058 nM	530 nM
CO[C@H]1/C=C/C[C@H](C)C[S@@](=O)(NC(=O)c2cc3n(n2)CCCO3)=NC(=O)c2ccc3c(c2)N(C[C@@H]2CC[C@H]21)C[C@@]1(CCCc2cc(Cl)ccc21)CO3 [Example 197]	0.041 nM	130 nM
CO[C@H]1/C=C/C[C@H](C)C[S@@](=O)(NC(=O)N2CC(F)(F)C2)=NC(=O)c2ccc3c(c2)N(C[C@@H]2CC[C@H]21)C[C@@]1(CCCc2cc(Cl)ccc21)CO3 [Example 323]	0.158 nM	170 nM
CO[C@@H]1CC[C@@H](NC(=O)N[S@@]2(=O)=NC(=O)c3ccc4c(c3)N(C[C@@H]3CC[C@H]3[C@@H](OC)/C=C/C[C@H](C)C2)C[C@@]2(CCCc3cc(Cl)ccc32)CO4)C1 [Example 322]	0.057 nM	64.4 nM
COc1ncc(C(=O)N[S@@]2(=O)=NC(=O)c3ccc4c(c3)N(C[C@@H]3CC[C@H]3[C@@H](OC)/C=C/C[C@H](C)C2)C[C@@]2(CCCc3cc(Cl)ccc32)CO4)c(OC)n1 [Example 271]	0.1 nM	176 nM
CO[C@H]1/C=C/C[C@H](C)C[S@@](=O)(NC(=O)Nc2ncccn2)=NC(=O)c2ccc3c(c2)N(C[C@@H]2CC[C@H]21)C[C@@]1(CCCc2cc(Cl)ccc21)CO3 [Example 111]	0.093 nM	721 nM
CCn1ncc(C(=O)N[S@@]2(=O)=NC(=O)c3ccc4c(c3)N(C[C@@H]3CC[C@H]3[C@@H](OC)/C=C/C[C@H](C)C2)C[C@@]2(CCCc3cc(Cl)ccc32)CO4)n1 [Example 422]	0.035 nM	187 nM
CO[C@H]1/C=C/C[C@H](C)C[S@@](=O)(NC(=O)CCc2cnn(C)c2)=NC(=O)c2ccc3c(c2)N(C[C@@H]2CC[C@H]21)C[C@@]1(CCCc2cc(Cl)ccc21)CO3 [Example 142]	0.097 nM	416 nM
CO[C@H]1/C=C/CCC[S@@](=O)(NC(=O)CCc2cccnc2)=NC(=O)c2ccc3c(c2)N(C[C@@H]2CC[C@H]21)C[C@@]1(CCCc2cc(Cl)ccc21)CO3 [Example 40]	0.1 nM	328 nM
COc1nn(C)cc1C(=O)N[S@@]1(=O)=NC(=O)c2ccc3c(c2)N(C[C@@H]2CC[C@H]2[C@@H](OC(=O)CCN2CCOCC2)/C=C/C[C@H](C)C1)C[C@@]1(CCCc2cc(Cl)ccc21)CO3 [Example 300]	0.026 nM	26.8 nM
CO[C@H]1/C=C/C[C@H](C)C[S@@](=O)(NC(=O)N2C[C@@H](OC)[C@@H]2C)=NC(=O)c2ccc3c(c2)N(C[C@@H]2CC[C@H]21)C[C@@]1(CCCc2cc(Cl)ccc21)CO3 [Example 253]	0.037 nM	39.2 nM
COCC12CC(NC(=O)N[S@@]3(=O)=NC(=O)c4ccc5c(c4)N(C[C@@H]4CC[C@H]4[C@@H](OC)/C=C/C[C@H](C)C3)C[C@@]3(CCCc4cc(Cl)ccc43)CO5)(C1)C2 [Example 211]	0.082 nM	54.2 nM

SMILES	IC50 [1]	EC50 (SKBR3 cells)
CO[C@H]1/C=C/C[C@H](C)C[S@@](=O)(NC(=O)N[C@@H]2C[C@]2(C)OC)=NC(=O)c2ccc3c(c2)N(C[C@@H]2CC[C@H]21)C[C@@]1(CCCc2cc(Cl)ccc21)CO3 (single isomer, unassigned) [Example 312]	0.039 nM	43.5 nM
CO[C@H]1/C=C/C[C@H](C)C[S@@](=O)(NC(=O)N[C@H]2C[C@@H](OC)C2)=NC(=O)c2ccc3c(c2)N(C[C@@H]2CC[C@H]21)C[C@@]1(CCCc2cc(Cl)ccc21)CO3 [Example 149]	0.109 nM	95.3 nM
CO[C@H]1/C=C/CCC[S@@](=O)(NC(=O)C2COC2)=NC(=O)c2ccc3c(c2)N(C[C@@H]2CC[C@H]21)C[C@@]1(CCCc2cc(Cl)ccc21)CO3 [Example 24]	0.2 nM	891 nM
CO[C@H]1/C=C/C[C@H](C)C[S@@](=O)(NC(=O)N2CC(C3COC3)C2)=NC(=O)c2ccc3c(c2)N(C[C@@H]2CC[C@H]21)C[C@@]1(CCCc2cc(Cl)ccc21)CO3 [Example 261]	0.053 nM	72 nM
CO[C@H]1/C=C/C[C@H](C)C[S@@](=O)(NC(=O)N2CC(C(F)F)C2)=NC(=O)c2ccc3c(c2)N(C[C@@H]2CC[C@H]21)C[C@@]1(CCCc2cc(Cl)ccc21)CO3 [Example 351]	0.035 nM	58.8 nM
CO[C@H]1/C=C/C[C@H](C)C[S@@](=O)(NC(=O)N[C@H]2C[C@@H]2OC)=NC(=O)c2ccc3c(c2)N(C[C@@H]2CC[C@H]21)C[C@@]1(CCCc2cc(Cl)ccc21)CO3 [Example 160]	0.031 nM	35 nM
CO[C@H]1/C=C/CCC[S@@](=O)(NC(=O)CC2CC2)=NC(=O)c2ccc3c(c2)N(C[C@@H]2CC[C@H]21)C[C@@]1(CCCc2cc(Cl)ccc21)CO3 [Example 21]	0.8 nM	1300 nM
CCO[C@H]1/C=C/C[C@H](C)C[S@@](=O)(NC(=O)c2cn(C)nc2OC)=NC(=O)c2ccc3c(c2)N(C[C@@H]2CC[C@H]21)C[C@@]1(CCCc2cc(Cl)ccc21)CO3 [Example 367]	0.063 nM	101 nM
CO[C@H]1/C=C/C[C@H](C)C[S@@](=O)(NC(=O)N[C@@H]2CC[C@@H](O)C2)=NC(=O)c2ccc3c(c2)N(C[C@@H]2CC[C@H]21)C[C@@]1(CCCc2cc(Cl)ccc21)CO3 [Example 222]	0.044 nM	80.1 nM
CO[C@H]1/C=C/C[C@H](C)C[S@@](=O)(NC(=O)NC2COC2)=NC(=O)c2ccc3c(c2)N(C[C@@H]2CC[C@H]21)C[C@@]1(CCCc2cc(Cl)ccc21)CO3 [Example 428]	0.069 nM	165 nM
CO[C@H]1/C=C/C[C@H](C)C[S@@](=O)(NC(=O)c2cc3n(c2)CC=C3)=NC(=O)c2ccc3c(c2)N(C[C@@H]2CC[C@H]21)C[C@@]1(CCCc2cc(Cl)ccc21)CO3 [Example 135]	0.213 nM	132 nM
CO[C@H]1/C=C/C[C@H](C)C[S@@](=O)(NC(=O)NC2CC3(COC3)C2)=NC(=O)c2ccc3c(c2)N(C[C@@H]2CC[C@H]21)C[C@@]1(CCCc2cc(Cl)ccc21)CO3 [Example 217]	0.065 nM	83.2 nM
CO[C@H]1/C=C/C[C@H](C)C[S@@](=O)(NC(=O)CO[C@H]2CCOC[C@H]2F)=NC(=O)c2ccc3c(c2)N(C[C@@H]2CC[C@H]21)C[C@@]1(CCCc2cc(Cl)ccc21)CO3 [Example 416]	0.047 nM	131 nM
COc1nn(C)cc1C(=O)N[S@@]1(=O)=NC(=O)c2ccc3c(c2)N(C[C@@H]2CC[C@H]2[C@@H](O)CCC[C@H](C)C1)C[C@@]1(CCCc2cc(Cl)ccc21)CO3 [Example 280]	0.044 nM	50 nM
COc1nn(C)cc1C(=O)N[S@@]1(=O)=NC(=O)c2ccc3c(c2)N(C[C@@H]2CC[C@H]2[C@@H](OC)/C=C/[C@H](OC)[C@H](C)C1)C[C@@]1(CCCc2cc(Cl)ccc21)CO3 [Example 283]	0.029 nM	84.8 nM
CO[C@H]1/C=C/C[C@H](C)C[S@@](=O)(NC(=O)c2cc(Cl)n(C)c2)=NC(=O)c2ccc3c(c2)N(C[C@@H]2CC[C@H]21)C[C@@]1(CCCc2cc(Cl)ccc21)CO3 [Example 118]	0.103 nM	184 nM
